Data from patent US12216122B2, “Compositions and methods relating to detection, inhibition, and imaging of indoleamine 2,3-dioxygenase 1 (IDO1)” (Regeneron Pharmaceuticals, Inc., priority 2019, dated 2025).
Like-named read-outs stand apart in the source and are kept apart here. Numbered stars: 1 amine (or outer) side, 2 acyl side, 3 side chain; on linkers, the order of the positions; unused ones are H or OH. Bridge positions count the residues as written; N and C are the ends. Square brackets hold non-standard residues; d marks the D form. Triazole bridges read from a SMILES are 1,4-linked. Ends that are not written are not given here. Peptide text beside a SMILES is read from it. * marks the point of attachment. Biotinyl(3aR,4R,6aS) = O=C1N[C@@H]2[C@@H](CS[C@@H]2CCCCC(=O)*)N1; X6 = O=C([C@@H](Cc1ccc(Oc2ccccc2)cc1)N[*:1])[*:2]; Biotin = O=C1N[C@H]2[C@H](CS[C@H]2CCCCC(=O)*)N1; dTrp(1-Me) = Cn1cc(C[C@@H](N)C(=O)O)c2ccccc21; Trp(1-Me) = Cn1cc(C[C@H](N)C(=O)O)c2ccccc21; dPhe(4-Me) = Cc1ccc(C[C@@H](N)C(=O)O)cc1; Lys(N3) = [N-]=[N+]=NCCCC[C@H](N)C(=O)O; Phe(4-F) = N[C@@H](Cc1ccc(F)cc1)C(=O)O; X4 = O=C1NC2CS[C@@H](CCCCC(=O)*)C2N1; dTle = CC(C)(C)[C@@H](N)C(=O)O; AEEEA = NCCOCCOCCOCC(=O)O; Pra = C#CC[C@H](N)C(=O)O

Assays:
[1] = target: T1, His-tagged IDO1 human recombinant protein (Homo sapiens, UniProt P14902); experiment: IDO1 ELISA (Affinity Assay): sandwich ELISA, biotinylated ligand immobilized on NEUTRAVIDIN plate; assay type: binding
T1 construct: purchased BPS Biosciences 71182
Procedure: Protocol: A black 96-well NEUTRAVIDIN® Coated High Binding Capacity plate (15510, Pierce) was coated with 2 μM biotinylated macrocyclic peptide ligand in TBS (25 mM Tris-HCl, 150 mM NaCl, pH 7.6) for 2 h at room temperature. The plate was aspirated and then washed with Wash Buffer (0.05% (v/v) TWEEN® 20 in PBS, 6×). His-tagged IDO1 human recombinant protein (71182, BPS Biosciences) was serially diluted in Wash Buffer (from 200 to 0 nM) and incubated in the designated microwells for 1 h at room temperature. Microwells were aspirated and subsequently washed with Wash Buffer (11×). To detect the bound IDO1 protein, Alkaline Phosphatase (AP)-conjugated Anti-6×HIS TAG® antibody [HIS-1] (ab49746, Abcam) was prepared at 1:10,000 dilution and added to the microwells for 1 h at room temperature. The plate was aspirated and washed with Wash Buffer (5×). ATTOPHOS® AP Fluorescent Substrate System (S1000, Promega) was employed to develop the microwells. Using an excitation wavelength of 430 nm, fluorescent emission at 535 nm was recorded by Beckman Coulter DTX880 photometer. Titration curves were fit using a four-parameter regression curve fitting program to determine EC50 values.
For these assays, a dilution series of His-tagged IDO1 human recombinant protein was captured using the macrocyclic peptide ligands immobilized on a NEUTRAVIDIN®-coated plate. […] The sequences of the peptide ligands are listed in Table 1, where D-amino acids are denoted in lowercase, Me-Trp=1-methyl-L-tryptophan, and F-Phe=4-fluoro-L-phenylalanine. Chemical structures are shown below Table 1.
The D-alanine substituted, biotin-PEG3-modified macrocycles were tested in the IDO1 ELISA (Affinity assay). For these assays, a dilution series of His-tagged IDO1 human recombinant protein was captured using macrocycles immobilized on a NEUTRAVIDIN®-coated plate.

[2] = target: T2, recombinant human IDO1 (Homo sapiens, UniProt P14902); experiment: IDO1 Fluorogenic Inhibitor Screening Assay (enzyme inhibition); assay type: biochemical
T2 construct: purchased BPS Biosciences 72037
Procedure: The IDO1 Fluorogenic Inhibitor Screening Assay Kit (72037, BPS Biosciences) was used to measure the enzyme inhibition of human IDO1 in the presence of macrocyclic peptide ligands. IDO1 catalyzes the conversion of the essential amino acid L-tryptophan (L-Trp) to N-formylkynurenine (NFK). In the assay, the test inhibitor and enzyme were added to a sample containing L-Trp substrate. After incubation for 1 h at room temperature, 20 μL Fluorescence Solution was added and incubated at 37° C. for 4 h to produce a fluorescent product. Activity was measured by reading sample fluorescence at λ=510 nm following excitation of the reaction product at λ=400 nm.

[3] = 2 μM biotinylated macrocycle immobilized, human IDO1 titrated 200 to 0 nM, read-out: EC50, sandwich ELISA for human IDO1 protein against biotin-PEG3-modified macrocycle

T1 sequence (P14902 whole entry): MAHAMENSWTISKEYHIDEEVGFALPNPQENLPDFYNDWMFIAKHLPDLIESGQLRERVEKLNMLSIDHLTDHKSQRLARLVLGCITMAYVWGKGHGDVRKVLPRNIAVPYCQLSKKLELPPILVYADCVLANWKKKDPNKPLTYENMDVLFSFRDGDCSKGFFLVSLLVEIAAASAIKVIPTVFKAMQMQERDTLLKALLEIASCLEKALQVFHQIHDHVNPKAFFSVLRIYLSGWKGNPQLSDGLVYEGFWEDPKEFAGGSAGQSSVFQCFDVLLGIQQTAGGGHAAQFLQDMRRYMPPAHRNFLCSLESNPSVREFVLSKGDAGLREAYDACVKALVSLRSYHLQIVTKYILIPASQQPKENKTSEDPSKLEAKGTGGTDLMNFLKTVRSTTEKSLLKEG
T2 sequence (P14902 whole entry): as above

Cn1cc(C[C@H]2NC(=O)[C@@H](CCCNC(=N)N)NC(=O)[C@@H](Cc3ccccc3)NC(=O)[C@@H](CO)NC(=O)[C@@H](CC(N)=O)NC(=O)[C@@H](NC(=O)COCCOCCOCCNC(=O)CCCC[C@@H]3SCC4NC(=O)NC43)Cc3cn(nn3)CCCC[C@@H](C(N)=O)NC2=O)c2ccccc21 (stereo partly shown) [nsfr(Me-Trp), biotin-PEG3-Cy(nsfr(Me-Trp))] ({X4-AEEEA}-[Pra][dN][dS][dF][dR][dTrp(1-Me)][Lys(N3)]-NH2; triazole 1-7)
EC50 [1, 3]: 124 nM
EC50 ([1]; Example 9, read-out: Binding affinity (EC50) of prioritized Epitope 1 hits): 124 nM

N=C(N)NCCC[C@H]1NC(=O)[C@H](Cc2ccc(F)cc2)NC(=O)[C@@H](Cc2c[nH]cn2)NC(=O)[C@@H](CO)NC(=O)[C@@H](CC(N)=O)NC(=O)[C@@H](NC(=O)COCCOCCOCCNC(=O)CCCC[C@H]2SC[C@H]3NC(=O)N[C@H]32)Cc2cn(nn2)CCCC[C@@H](C(N)=O)NC1=O [nsh(F-Phe)r, biotin-PEG3-Cy(nsh(F-Phe)r)] ({Biotinyl(3aR,4R,6aS)-AEEEA}-[Pra][dN][dS][dH][Phe(4-F)][dR][Lys(N3)]-NH2; triazole 1-7)
EC50 [1, 3]: 68 nM

NC(=O)[C@@H]1CCCCn2cc(nn2)C[C@H](NC(=O)COCCOCCOCCNC(=O)CCCC[C@@H]2SC[C@@H]3NC(=O)N[C@@H]32)C(=O)N[C@H](CO)C(=O)N[C@H](Cc2c[nH]c3ccccc23)C(=O)N[C@H](Cc2c[nH]c3ccccc23)C(=O)N[C@@H](Cc2ccc(F)cc2)C(=O)N1 [sww(F-Phe), Biotin-PEG3-Cy(sww(F-Phe))] ({Biotin-AEEEA}-[Pra][dS][dW][dW][Phe(4-F)][Lys(N3)]-NH2; triazole 1-6)
Binding to human IDO1 by ELISA, in words [1]: superior to the other 4-mers generated

CC(=O)N[C@H]1Cc2cn(nn2)CCCC[C@@H](C(N)=O)NC(=O)[C@@H](Cc2ccc(C)cc2)NC(=O)CNC(=O)[C@@H](C(C)(C)C)NC(=O)[C@@H](Cc2ccc(Oc3ccccc3)cc2)NC(=O)[C@@H](Cc2c[nH]c3ccccc23)NC1=O [w(Ph-Tyr)(Me-Val)G(Me-Phe)] (Ac-[Pra][dW][X6][dTle]G[dPhe(4-Me)][Lys(N3)]-NH2; triazole 1-7)
EC50 ([1]; read-out: Binding affinity (EC50)): 18 nM

C[C@H]1NC(=O)[C@@H](CCCNC(=N)N)NC(=O)[C@@H](Cc2c[nH]c3ccccc23)NC(=O)[C@@H](NC(=O)COCCOCCOCCNC(=O)CCCC[C@H]2SC[C@H]3NC(=O)N[C@H]32)Cc2cn(nn2)CCCC[C@@H](C(N)=O)NC(=O)[C@@H](Cc2ccc(O)cc2)NC1=O [wray, Biotin-PEG3-Cy(wray)] ({Biotinyl(3aR,4R,6aS)-AEEEA}-[Pra][dW][dR][dA][dY][Lys(N3)]-NH2; triazole 1-6)
Binding to human IDO1 by ELISA, in words [1]: less potent binders

C[C@H]1NC(=O)[C@@H](CCCNC(=N)N)NC(=O)[C@@H](Cc2ccc(O)cc2)NC(=O)[C@@H](NC(=O)COCCOCCOCCNC(=O)CCCC[C@H]2SC[C@H]3NC(=O)N[C@H]32)Cc2cn(nn2)CCCC[C@@H](C(N)=O)NC(=O)[C@@H](Cc2ccc(O)cc2)NC1=O [yray, Biotin-PEG3-Cy(yray)] ({Biotinyl(3aR,4R,6aS)-AEEEA}-[Pra][dY][dR][dA][dY][Lys(N3)]-NH2; triazole 1-6)
Binding to human IDO1 by ELISA, in words [1]: less potent binders

Inh-PEG6-wyvay ([dW][dY][dV][dA][dY]; also: IDO1 inhibitor via PEG6 linker)
IDO1 inhibition potency relative to the small molecule (Inh) alone, in words [2]: an order of magnitude more potent than the small molecule

PEG4
IDO1 inhibition potency relative to the small molecule (Inh) alone, in words [2]: less active than the small molecule alone

nlf(Me-Trp)(F-Phe)-Ge-VHL: Epitope 2 peptide ligand linked to VHL E3 ligase ligand ([dN][dL][dF][Trp(1-Me)][Phe(4-F)]; also: Ge linker to VHL E3 ligase ligand)
EC50 ([1]; binding analysis of VHL-linked Epitope 2 ligand, read-out: EC50): 30 nM
